The target of the assay is PRMT5/MEP50 (Homo sapiens (Human), UniProt O14744). Nature of the assay: PRMT5 Biochemical Assay (PRMT5/MEP50 enzyme assay on peptide substrate, 3H-SAM Flashplate). The source says: S-adenosylmethionine (SAM), S-adenosylhomocysteine (SAH), bicine, KCl, Tween20, dimethylsulfoxide (DMSO), bovine skin gelatin (BSG), and Tris(2-carboxyethyl)phosphine hydrochloride solution (TCEP) were purchased from Sigma-Aldrich at the highest level of purity possible. ^3H-SAM was purchase from American Radiolabeled Chemicals with a specific activity of 80 Ci/mmol. 384-well streptavidin Flashplates were purchased from PerkinElmer.
Sequence of PRMT5/MEP50 (O14744 other isoform, or with tags, fused parts or gaps): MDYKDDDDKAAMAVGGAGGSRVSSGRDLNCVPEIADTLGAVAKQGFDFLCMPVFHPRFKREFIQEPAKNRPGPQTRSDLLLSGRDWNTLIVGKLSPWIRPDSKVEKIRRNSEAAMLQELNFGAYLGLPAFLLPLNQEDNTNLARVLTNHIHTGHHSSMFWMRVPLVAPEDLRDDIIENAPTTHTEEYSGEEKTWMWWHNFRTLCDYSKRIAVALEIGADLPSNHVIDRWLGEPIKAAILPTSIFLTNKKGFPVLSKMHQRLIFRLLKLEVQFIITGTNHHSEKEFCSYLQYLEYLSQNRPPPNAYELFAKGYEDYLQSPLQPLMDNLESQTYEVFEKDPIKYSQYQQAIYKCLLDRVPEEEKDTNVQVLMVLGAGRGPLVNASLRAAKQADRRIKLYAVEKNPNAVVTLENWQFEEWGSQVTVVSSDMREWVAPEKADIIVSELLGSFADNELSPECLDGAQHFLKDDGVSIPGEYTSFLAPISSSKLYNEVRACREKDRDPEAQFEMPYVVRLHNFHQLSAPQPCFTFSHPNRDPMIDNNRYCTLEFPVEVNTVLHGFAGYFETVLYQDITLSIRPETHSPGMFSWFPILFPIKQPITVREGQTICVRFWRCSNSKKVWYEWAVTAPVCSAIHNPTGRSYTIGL
Sequence of PRMT5/MEP50 (Q9BQA1 other isoform, or with tags, fused parts or gaps partner): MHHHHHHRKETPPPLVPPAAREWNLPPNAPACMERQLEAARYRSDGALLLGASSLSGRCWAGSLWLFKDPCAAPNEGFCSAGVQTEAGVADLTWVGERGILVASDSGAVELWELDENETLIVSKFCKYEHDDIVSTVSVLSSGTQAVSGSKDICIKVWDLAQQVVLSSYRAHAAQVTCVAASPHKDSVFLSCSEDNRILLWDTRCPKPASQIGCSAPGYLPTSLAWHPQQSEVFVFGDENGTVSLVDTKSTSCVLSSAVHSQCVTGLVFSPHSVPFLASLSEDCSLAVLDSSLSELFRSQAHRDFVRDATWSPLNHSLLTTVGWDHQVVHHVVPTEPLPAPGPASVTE
Peptide representative of human histone H4 residues 1-15 was synthesized with a C-terminal linker-affinity tag motif and a C-terminal amide cap by 21st Century Biochemicals. The peptide was high high-performance liquid chromatography (HPLC) purified to greater than 95% purity and confirmed by liquid chromatography mass spectrometry (LC-MS). The sequence was Ac-[…][K-Biot]-amide (SEQ ID NO.:3).
Molecular Biology: Full-length human PRMT5 (NM_006109.3) transcript variant 1 clone was amplified from a fetal brain cDNA library, incorporating flanking 5′ sequence encoding a FLAG tag ([…]) (SEQ ID NO.:4) fused directly to Ala 2 of PRMT5. Full-length human MEP50 (NM_024102) clone was amplified from a human testis cDNA library incorporating a 5′ sequence encoding a 6-histidine tag (MHHHHHH) (SEQ ID NO.:5) fused directly to Arg 2 of MEP50. The amplified genes were sublconed into pENTR/D/TEV (Life Technologies) and subsequently transferred by Gateway™ attL×attR recombination to pDEST8 baculvirus expression vector (Life Technologies).
Recombinant baculovirus and Baculovirus-Infected Insect Cells (BIIC) were generated according to Bac-to-Bac kit instructions (Life Technologies) and Wasilko, 2006, respectively. Protein over-expression was accomplished by infecting exponentially growing Spodoptera frugiperda (SF9) cell culture at 1.2×10^6 cell/ml with a 5000 fold dilution of BIIC stock. Infections were carried out at 27° C. for 72 hours, harvested by centrifugation, and stored at −80° C. for purification.
Flag-PRMT5/6His-MeP50 was eluted with 300 mM Imidazole in the same buffer. The purity of recovered protein was 87%. Reference: Wasilko, D. J. and S. E. Lee: “TIPS: titerless infected-cells preservation and scale-up” Bioprocess J., 5 (2006), pp. 29-32.
General Procedure for PRMT5/MEP50 Enzyme Assays on Peptide Substrates.
The assays were all performed in a buffer consisting of 20 mM Bicine (pH=7.6), 1 mM TCEP, 0.005% BSG, and 0.002% Tween20, prepared on the day of use. Compounds in 100% DMSO (1 ul) were spotted into a polypropylene 384-well V-bottom plates (Greiner) using a Platemate Plus outfitted with a 384-channel head (Thermo Scientific). DMSO (1 ul) was added to Columns 11, 12, 23, 24, rows A-H for the maximum signal control and 1 ul of SAH, a known product and inhibitor of PRMT5/MEP50, was added to columns 11, 12, 23, 24, rows I-P for the minimum signal control. A cocktail (40 ul) containing the PRMT5/MEP50 enzyme and the peptide was added by Multidrop Combi (Thermo-Fisher). The compounds were allowed to incubate with PRMT5/MEP50 for 30 min at 25 degrees Celsius, then a cocktail (10 ul) containing ^3H-SAM was added to initiate the reaction (final volume=51 ul). The final concentrations of the components were as follows: PRMT5/MEP50 was 4 nM, ^3H-SAM was 75 nM, peptide was 40 nM, SAH in the minimum signal control wells was 100 uM, and the DMSO concentration was 1%. The assays were stopped by the addition of non-radioactive SAM (10 ul) to a final concentration of 600 uM, which dilutes the ^3H-SAM to a level where its incorporation into the peptide substrate is no longer detectable. 50 ul of the reaction in the 384-well polypropylene plate was then transferred to a 384-well Flashplate and the biotinylated peptides were allowed to bind to the streptavidin surface for at least 1 hour before being washed three times with 0.1% Tween20 in a Biotek ELx405 plate washer. […]

Bounds are passed on as bounds.

Regarding `Cn1cnc2ccc(-c3cccc(OCC(O)CN4CCc5ccccc5C4CC(N)=O)c3)cc21` (stereo not drawn) [Compound 202], the IC50 was over 40000 nM. In the case of `OC(CNc1cc(-c2ccc3ncn(C4CCNCC4)c3c2)ccn1)CN1CCc2ccccc2C1` (stereo not drawn) [Compound 241], the IC50 is under 100 nM.

Consider `Cn1cnc2ccc(-c3cccc(OCC(O)CN4CCc5ccccc5C4COc4ccccc4)c3)cc21` (stereo not drawn) [Compound 178], for which the IC50 is over 40000 nM. The figure for `OC(CNc1cc(-c2ccc3ncn(C4CCNC4)c3c2)ccn1)CN1CCc2ccccc2C1` (stereo not drawn) [Compound 240] is under 100 nM; for `Cn1ncc2cc(-c3cccc(OCC(O)CN4CCc5ccccc5C4)c3)ccc21` (stereo not drawn) [Compound 108] it is under 100 nM.

`OC(CNc1cc(-c2ccc3ncn(C4CNC4)c3c2)ccn1)CN1CCc2ccccc2C1` (stereo not drawn) [Compound 229]: the IC50 was under 100 nM. For `Cn1cnc2ccc(-c3cccc(OCC(O)CN4CCc5ccccc5C4=O)c3)cc21` (stereo not drawn) [Compound 225], the IC50 is over 40000 nM. With `Cn1cnc2ccc(-c3ccnc(NCC(O)CN4CCc5ccccc5C4)c3)nc21` (stereo not drawn) [Compound 238, 1-(3,4-dihydroisoquinolin-2(1H)-yl)-3-((4-(3-methyl-3H-imidazo[4,5-b]pyridin-5-yl)pyridin-2-yl)amino)propan-2-ol] the figure was under 100 nM; with `CCn1ccnc1COCC(O)CN1CCc2ccccc2C1` (stereo not drawn) [Compound 295], over 40000 nM; with `OC(COC1CCNC1)CN1CCc2ccccc2C1` (stereo not drawn) [Compound 306], over 40000 nM. Consider `Cn1ccc2cnc(-c3cccc(OCC(O)CN4CCc5ccccc5C4)c3)nc21` (stereo not drawn) [Compound 141, 1-(3,4-dihydroisoquinolin-2(1H)-yl)-3-(3-(7-methyl-7H-pyrrolo[2,3-d]pyrimidin-2-yl)phenoxy)propan-2-ol], for which the IC50 was under 100 nM. As to `OC(COc1cccc(-c2ccc3ncn(C4COC4)c3c2)c1)CN1CCc2ccccc2C1` (stereo not drawn) [Compound 269], the IC50 is under 100 nM.

Regarding `Cn1ccc2cnc(-c3ccnc(NCC(O)CN4CCc5ccccc5C4)c3)nc21` (stereo not drawn) [Compound 239, 1-(3,4-dihydroisoquinolin-2(1H)-yl)-3-((4-(7-methyl-7H-pyrrolo[2,3-d]pyrimidin-2-yl)pyridin-2-yl)amino)propan-2-ol], the IC50 was under 100 nM. The figure for `OC(CNc1cc(-c2ncc3ccn(C4CCNCC4)c3n2)ccn1)CN1CCc2ccccc2C1` (stereo not drawn) [Compound 255] is under 100 nM. As to `Cn1cncc1C(=O)Nc1cccc(OC[C@H](O)CN2CCc3ccccc3C2)c1` [Compound 259], the IC50 lay within 101 to 1000 nM. The figure for `O=C(Cn1ccc2cnc(-c3ccnc(NCC(O)CN4CCc5ccccc5C4)c3)nc21)N1CCCC1` (stereo not drawn) [Compound 233] is under 100 nM.

As to `OC(CNc1cc(-c2ccc3ncn(C4CCOCC4)c3c2)ccn1)CN1CCc2ccccc2C1` (stereo not drawn) [Compound 251, 1-(3,4-dihydroisoquinolin-2(1H)-yl)-3-((4-(1-(tetrahydro-2H-pyran-4-yl)-1H-benzo[d]imidazol-6-yl)pyridin-2-yl)amino)propan-2-ol], the IC50 was under 100 nM. Take `Cc1ncc2ccc(-c3cccc(OCC(O)CN4CCc5ccccc5C4)c3)cn12` (stereo not drawn) [Compound 266, 1-(3,4-dihydroisoquinolin-2(1H)-yl)-3-(3-(3-methylimidazo[1,5-a]pyridin-6-yl)phenoxy)propan-2-ol]: the IC50 is under 100 nM. Consider `CC1CN(CC(O)COc2cccc(CNC3CCCC3)c2)Cc2ccccc21` (stereo not drawn) [Compound 56], for which the IC50 was over 40000 nM. Regarding `CN1CCC(n2cnc3ccc(-c4ccnc(NCC(O)CN5CCc6ccccc6C5)c4)cc32)C1` (stereo not drawn) [Compound 250], the IC50 was under 100 nM. In the case of `Cn1cnc2ccc(-c3ccnc(NCC(O)CN4CCc5ccccc5C4)c3)cc21` (stereo not drawn) [Compound 118, 1-(3,4-Dihydroisoquinolin-2(1H)-yl)-3-((4-(1-methyl-1H-benzo[d]imidazol-6-yl)pyridin-2-yl)amino)propan-2-ol], the IC50 was under 100 nM. Take `OC(COc1cccc(-c2cccc3[nH]cnc23)c1)CN1CCc2ccccc2C1` (stereo not drawn) [Compound 223, 1-(3-(1H-benzo[d]imidazol-4-yl)phenoxy)-3-(3,4-dihydroisoquinolin-2(1H)-yl)propan-2-ol]: the IC50 was under 100 nM. For `CNC(=O)Cn1ccc2cnc(-c3ccnc(NCC(O)CN4CCc5ccccc5C4)c3)nc21` (stereo not drawn) [Compound 245], the IC50 is under 100 nM. The figure for `CN1CC(n2cnc3ccc(-c4cccc(OCC(O)CN5CCc6ccccc6C5)c4)cc32)C1` (stereo not drawn) [Compound 218, 1-(3,4-dihydroisoquinolin-2(1H)-yl)-3-(3-(1-(1-methylazetidin-3-yl)-1H-benzo[d]imidazol-6-yl)phenoxy)propan-2-ol] is under 100 nM; for `OC(CNc1cc(-c2ncc3ccn(C4CNC4)c3n2)ccn1)CN1CCc2ccccc2C1` (stereo not drawn) [Compound 254] it is under 100 nM; for `Cn1cnc2ccc(-c3cccc(OCC(O)CN4CCc5ccccc5C4)c3)cc21` (stereo not drawn) [Compound 45, 1-(3,4-dihydroisoquinolin-2(1H)-yl)-3-(3-(1-methyl-1H-benzo[d]imidazol-6-yl)phenoxy)propan-2-ol] it is under 100 nM. As for `CN(C)S(=O)(=O)c1cccc(-c2cccc(OCC(O)CN3CCc4ccccc4C3)c2)c1` (stereo not drawn) [Compound 61], the IC50 was over 40000 nM. With `COc1ccc(Cn2ccc(-c3ccc(OC[C@@H](O)CN4CCc5ccccc5C4)cc3)n2)cc1` [Compound 42] the figure was 10000 to 40000 nM; with `CN1CCCCC1COCC(O)CN1CCc2ccccc2C1` (stereo not drawn) [Compound 289], over 40000 nM; with `OC(CNc1cc(-c2ccc3ncn(C4COC4)c3c2)ccn1)CN1CCc2ccccc2C1` (stereo not drawn) [Compound 265], under 100 nM.

With `OC(COc1cccc(-c2cccc3cccnc23)c1)CN1CCc2ccccc2C1` (stereo not drawn) [Compound 65, 1-(3,4-dihydroisoquinolin-2(1H)-yl)-3-(3-(quinolin-8-yl)phenoxy)propan-2-ol], the IC50 was under 100 nM. Consider `O=C(Cn1ccc2cnc(-c3ccnc(NCC(O)CN4CCc5ccccc5C4)c3)nc21)N1CCCCC1` (stereo not drawn) [Compound 246], for which the IC50 is under 100 nM. The figure for `CN1CCC(OCC(O)CN2CCc3ccccc3C2)CC1` (stereo not drawn) [Compound 293] is over 40000 nM. The figure for `Cn1cc2ccc(-c3cccc(OCC(O)CN4CCc5ccccc5C4)c3)nc2n1` (stereo not drawn) [Compound 210, 1-(3,4-dihydroisoquinolin-2(1H)-yl)-3-(3-(2-methyl-2H-pyrazolo[3,4-b]pyridin-6-yl)phenoxy)propan-2-ol] is under 100 nM; for `Cn1cnc2ccc(-c3ccnc(NC[C@H](O)CN4CCc5ccccc5C4)c3)cc21` [Compound 275] it is under 100 nM. `CC1Cc2ccccc2CN1CC(O)COc1cccc(CNC2CCCC2)c1` (stereo not drawn) [Compound 51]: the IC50 is over 40000 nM. The figure for `Cn1cnc2ccc(-c3cccc(OC[C@@H](O)CN4CCc5ccccc5C4)c3)cc21` [Compound 173] is 101 to 1000 nM; for `Cn1cnc2ccc(-c3cccc(NCC(O)CN4CCc5ccccc5C4)c3)cc21` (stereo not drawn) [Compound 102, 1-(3,4-dihydroisoquinolin-2(1H)-yl)-3-((3-(1-methyl-1H-benzo[d]imidazol-6-yl)phenyl)amino)propan-2-ol] it is under 100 nM; for `COc1cccc2c1CCN(CC(O)COc1cccc(CNC3CCCC3)c1)C2` (stereo not drawn) [Compound 54] it is over 40000 nM.

On to `COc1cc2c(cc1OC)CN(CC(O)COc1cccc(CNC3CCCC3)c1)CC2` (stereo not drawn) [Compound 30], for which the IC50 is over 40000 nM. For the molecule `OC(COC1CCNCC1)CN1CCc2ccccc2C1` (stereo not drawn) [Compound 298], the IC50 is over 40000 nM. The figure for `Cn1cncc1C(=O)Nc1cccc(OC[C@@H](O)CN2CCc3ccccc3C2)c1` [Compound 260] is 1000 to 10000 nM.

What is called IC50 is the concentration at which inhibition is half-maximal.

For the origin of these results see patent US9777008B2, “PRMT5 inhibitors and uses thereof” (Epizyme, Inc., priority 2012, dated 2017).
